{"source": "paper PMC12802263", "about": "(mBio, 2025)", "key": {"[1]": {"target": "DncV (Vibrio cholerae, UniProt Q9KVG7)", "sequence (Q9KVG7 whole entry, looked up)": "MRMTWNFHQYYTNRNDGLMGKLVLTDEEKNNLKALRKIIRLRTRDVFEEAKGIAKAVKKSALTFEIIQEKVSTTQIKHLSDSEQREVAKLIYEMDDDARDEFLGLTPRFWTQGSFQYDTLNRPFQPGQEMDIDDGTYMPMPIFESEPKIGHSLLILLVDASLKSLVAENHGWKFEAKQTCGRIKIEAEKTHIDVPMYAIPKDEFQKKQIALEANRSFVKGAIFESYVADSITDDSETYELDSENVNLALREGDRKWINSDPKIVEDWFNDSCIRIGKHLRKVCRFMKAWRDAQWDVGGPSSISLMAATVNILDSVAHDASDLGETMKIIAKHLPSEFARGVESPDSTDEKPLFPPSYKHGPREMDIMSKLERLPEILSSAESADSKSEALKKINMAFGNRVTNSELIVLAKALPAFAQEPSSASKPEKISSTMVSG", "experiment": "biochemical"}, "[2]": {"target": "CapV (Vibrio cholerae, UniProt Q9KVG8)", "sequence (Q9KVG8 whole entry, looked up)": "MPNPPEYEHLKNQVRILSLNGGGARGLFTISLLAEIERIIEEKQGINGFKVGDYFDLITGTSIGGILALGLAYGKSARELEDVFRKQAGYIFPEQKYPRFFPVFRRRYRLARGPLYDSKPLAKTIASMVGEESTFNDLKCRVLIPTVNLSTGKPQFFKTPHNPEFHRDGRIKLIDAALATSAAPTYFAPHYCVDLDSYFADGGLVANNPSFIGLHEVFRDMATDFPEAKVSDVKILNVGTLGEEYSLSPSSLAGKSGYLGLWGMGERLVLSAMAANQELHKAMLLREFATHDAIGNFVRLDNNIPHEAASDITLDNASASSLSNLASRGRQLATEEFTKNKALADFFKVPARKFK", "conditions": "50 mM Na3PO4, pH 7.4, 300 mM NaCl, 10% glycerol, 37 °C"}}, "data": [{"compound": "Nc1nc2c(ncn2[C@@H]2O[C@H](COP(=O)(O)OP(=O)(O)OP(=O)(O)O)[C@@H](O)[C@H]2O)c(=O)[nH]1", "note": "[GTP]", "values": [{"measurement": "Kd", "setting": "[1]", "result": 2.63, "unit": "µM"}]}, {"compound": "Nc1nc2c(c(=O)[nH]1)N[C@@H](CNc1ccc(C(=O)N[C@@H](CCC(=O)O)C(=O)O)cc1)CN2", "note": "[THF, tetrahydrofolate]", "values": [{"measurement": "Kd", "setting": "[1]", "result": 3.59, "unit": "µM"}]}, {"compound": "CCCC(=O)Oc1ccc2nc3ccc(=O)cc-3oc2c1", "note": "[Resorufin butyrate]", "values": [{"measurement": "fluorogenic phospholipase assay (ex 550 / em 591 nm)", "setting": "[2]", "result": "phospholipase activity of the proteins CapV and CapV^S62A was detected using the fluorescent substrate Resorufin"}]}]}
